Data set [1] relates to calf thymus DNA. In words: DNA-intercalator displacement assay (EtBr displacement). Conditions: FIG. 4. Format: binding. From the text:
The curve labeled “Hoechst” corresponds to Hoechst 33258. Controls are: 1) no EtBr (min. fluorescence) and 2) no compound (max. fluorescence).
(§1) Gel retardation assays were done on 320 and other biaryl/terphenyl acid compounds, to test for electrophoretic mobility shifts due to the presence of a substance that directly binds DNA.

Data set [2] in a line: Acute toxicological study, i.p. Format: in vivo. Conditions: female CD-1 mice, n=3, seven days.
Protocol: (§6) An acute toxicological study was performed for 320 prior to the xenograft study. Two groups (n=3) of female CD-1 mice were injected intraperitoneally (i.p.) with either 10 or 100 mg/Kg of 320 dissolved in 5% DMSO, 10% PEG400. […] A second MTD study was done by the intravascular (i.v.) route using 4 groups of CD-1 mice for the following: vehicle, 3, 10 and 30 mg/Kg injections which were to be given daily for days 1-5 and study duration of two weeks, at which point survivors would be euthanised.
Data set [3] deals with T1, Topo I (Homo sapiens, UniProt P11387).
T1 sequence (P11387 1-765): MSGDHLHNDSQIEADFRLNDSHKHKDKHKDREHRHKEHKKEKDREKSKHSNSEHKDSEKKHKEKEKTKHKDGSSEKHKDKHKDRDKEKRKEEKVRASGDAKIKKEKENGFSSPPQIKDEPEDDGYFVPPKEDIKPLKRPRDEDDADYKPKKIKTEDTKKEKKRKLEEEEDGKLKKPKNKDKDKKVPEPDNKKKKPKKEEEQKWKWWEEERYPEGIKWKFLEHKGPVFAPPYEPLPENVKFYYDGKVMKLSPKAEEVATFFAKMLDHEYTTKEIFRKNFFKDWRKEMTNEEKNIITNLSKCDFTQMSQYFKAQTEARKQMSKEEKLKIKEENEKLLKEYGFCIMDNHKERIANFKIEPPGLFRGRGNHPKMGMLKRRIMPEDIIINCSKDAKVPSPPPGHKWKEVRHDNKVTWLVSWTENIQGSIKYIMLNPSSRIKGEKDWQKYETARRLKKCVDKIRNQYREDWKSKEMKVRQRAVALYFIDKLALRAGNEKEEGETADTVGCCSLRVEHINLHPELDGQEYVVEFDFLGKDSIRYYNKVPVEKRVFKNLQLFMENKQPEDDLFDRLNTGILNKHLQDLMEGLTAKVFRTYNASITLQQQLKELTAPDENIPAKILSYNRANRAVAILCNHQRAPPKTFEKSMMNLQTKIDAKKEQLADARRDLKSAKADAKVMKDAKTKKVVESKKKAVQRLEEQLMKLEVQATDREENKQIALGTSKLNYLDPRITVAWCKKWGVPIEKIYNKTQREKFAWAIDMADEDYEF
In words: Topo I covalent complex stabilization test. Format: biochemical. Conditions: similar tests as for Topo IIα. The source says:
(§2) To determine if the compound 320 stabilizes the TopoIIα-DNA covalent complex, cleavage intermediates are trapped by the addition of SDS to the reaction (Wilson Byl, J. A., et al., Biochemistry, 40, 712-718, 2001). After proteinase K digestion to digest any covalently bound Topo, the products are electrophoresed and stained with EtBr. The appearance of an additional band that is a linear form of the 2.5 Kb minicircle product is indicative of a compound's ability to stabilize the covalent complex.

The test system of data set [4] is NCI-H460. In words: NCI-H460 human xenograft study in nude mice. Particulars: i.v., 320 25 mg/Kg days 1-5, etoposide 35 mg/Kg days 7, 10, 14; for anti-tumor activity with respect to final tumor volume: doxorubicin 5 mg/Kg days 7 and 14, day 28. (In xenograft studies the graft and the host belong to different species.)
Protocol: as §6
All injections were by the i.v. route; groups were 5 NCR nu/nu mice. The cell line NCI-H460 was used to produce the tumors that appeared by day 7. […] All survivors to day 28 were euthanised at this time and tumor volumes measured.
The conditions of data set [5]: mouse, in vivo, iv.
Protocol: as §6
Data set [6] deals with TopoIIα-DNA covalent complex (Homo sapiens, UniProt P11388). The data set is described as follows: Topo IIα DNA covalent complex stabilization assay. The data set is classed as biochemical. Particulars: SDS trapping, proteinase K, FIG. 5.
From the text: as §2

Data set [7] deals with MCF-7. The data set is described as follows: Cell proliferation assay, MCF-7. The data set is classed as cell-based. Particulars: Homo sapiens, MCF7; 48 hrs exposure, Alamar Blue, FIG. 6; no shift between MCF-7 and MCF-7/ADR; read-out: approximate IC50, cell proliferation. The protocol: (§3) The MCF-7 cell line, the MDR cell line, and the MCF-7/ADR cell line were used. Alamar Blue™ was used to quantitate cell viability.
The compounds listed in Table II were prepared using the procedures outlined in the above Examples.

Data set [8] deals with T2, human Topo IIα (Homo sapiens, UniProt P11388).
T2 construct: purchased Topogen Inc. Columbus, Ohio
In words: Topo IIα decatenation inhibition assay (kDNA, agarose gel). Format: biochemical. Conditions: sample gel, FIG. 2; kDNA substrate.
From the text: When present, high molecular weight kDNA has not migrated from the loading well.
The enzyme assays used for determining Topo IIα inhibition was either the ATP-dependent decatenation of high molecular weight kDNA (kinetoplast) as substrate or the relaxation of supercoiled pBR322 each incorporating human Topo IIα (Topogen Inc. Columbus, Ohio) and following literature protocols (Fortune, J. M. et al., J. Biol. Chem., 273(28), 17643-50 1998; Muller, M. T. et al., Biochemistry, 27(22), 8369-79, 1988). The 2.5 Kd mini-circle product derived from the catenated substrate is resolved on an agarose gel with ethidium bromide staining after electrophoresis. Likewise, the relaxed form of pBR322 is resolved from the faster moving supercoiled form during electrophoresis.

The subject of data set [9] is MCF-7/ADR. The data set is described as follows: Cell proliferation assay, MDR line MCF-7/ADR. Format: cell-based, human. Particulars: 48 hrs exposure; less potent in MCF-7/ADR.
From the text: as §3

In data set [10] the test system is SF-268. The data set is described as follows: Cell proliferation assay, CNS Cancer SF-268. Format: cell-based. Conditions: Homo sapiens, read-out: GI50 or IC50, CNS Cancer SF-268. The method, then:
(§4) The compounds listed in Table III were prepared using the procedures outlined in the above Examples.

In data set [11] the test system is MCF-7. In words: Cell proliferation assay (panel), Breast Cancer MCF-7. Format: cell-based. Particulars: Homo sapiens, MCF7; read-out: GI50 or IC50, Breast Cancer MCF-7. The protocol:
(§5) The compounds listed in Table IV were prepared using the procedures outlined in the above Examples.

The subject of data set [12] is HL60-MX1 (MDR). In words: Cell proliferation assay, Leukemia HL60-MX1 (MDR). The data set is classed as cell-based. Conditions: read-out: GI50 or IC50, Leukemia HL60-MX1 (MDR). The protocol:
as §4

In data set [13] the test system is PC-3. In words: Cell proliferation assay, Prostate Cancer PC-3. Format: cell-based. Conditions: Homo sapiens, read-out: GI50 or IC50, Prostate Cancer PC-3. The method, then:
as §5

For data set [14], the system named is NCI-H460. The data set is described as follows: Cell proliferation assay, NSC Lung Cancer NCI-H460. The data set is classed as cell-based. Particulars: Homo sapiens, read-out: GI50 or IC50, NSC Lung Cancer NCI-H460. The method, then: as §4
The subject of data set [15] is SK-MEL-2. The data set is described as follows: Cell proliferation assay, Melanoma SK-MEL-2. The data set is classed as cell-based. Particulars: Homo sapiens, read-out: GI50 or IC50, Melanoma SK-MEL-2. The method, then:
as §5

In data set [16] the test system is OVCAR-3. The data set is described as follows: Cell proliferation assay, Ovarian Cancer OVCAR-3. Format: cell-based. Conditions: Homo sapiens, read-out: GI50 or IC50, Ovarian Cancer OVCAR-3. The protocol:
as §5

Data set [17] concerns UO-31. The data set is described as follows: Cell proliferation assay, Renal Cancer UO-31. Format: cell-based. Particulars: Homo sapiens, read-out: GI50 or IC50, Renal Cancer UO-31. The method, then:
as §5

For data set [18], the system named is HCT-15. In words: Cell proliferation assay, Colon Cancer HCT-15. Format: cell-based. Conditions: Homo sapiens, read-out: GI50 or IC50, Colon Cancer HCT-15. The protocol:
as §4

In data set [19] the test system is MES-SA/Dx5. The data set is described as follows: Cell proliferation assay, Uterine MES-SA/Dx5. Conditions: Homo sapiens, read-out: GI50 or IC50, Uterine MES-SA/Dx5. Format: cell-based. The protocol: as §5
The test system of data set [20] is NCI-ADR. The data set is described as follows: Cell proliferation assay, Breast Cancer NCI-ADR. Particulars: Homo sapiens, NCI/ADR-RES; read-out: GI50 or IC50, Breast Cancer NCI-ADR. Format: cell-based. The method, then:
as §5

The test system of data set [21] is H69-AR (MDR). The data set is described as follows: Cell proliferation assay, SC Lung Cancer H69-AR (MDR). The data set is classed as cell-based. Conditions: Homo sapiens, H69AR; read-out: GI50 or IC50, SC Lung Cancer H69-AR (MDR). The protocol:
as §4

The test system of data set [22] is HL-60. The data set is described as follows: Cell proliferation assay, Leukemia HL-60. Format: cell-based. Conditions: Homo sapiens, read-out: GI50 or IC50, Leukemia HL-60. The protocol:
as §4

Data set [23] has as its system pBR322 plasmid. The data set is described as follows: Gel retardation assay (electrophoretic mobility shift). Format: binding.
From the text: as §1
For orientation: In EMSA bound probe runs differently from free probe, usually more slowly.

The structures appear in SMILES notation. Like-named read-outs stand apart in the source and are kept apart here.

T2 sequence (P11388 whole entry): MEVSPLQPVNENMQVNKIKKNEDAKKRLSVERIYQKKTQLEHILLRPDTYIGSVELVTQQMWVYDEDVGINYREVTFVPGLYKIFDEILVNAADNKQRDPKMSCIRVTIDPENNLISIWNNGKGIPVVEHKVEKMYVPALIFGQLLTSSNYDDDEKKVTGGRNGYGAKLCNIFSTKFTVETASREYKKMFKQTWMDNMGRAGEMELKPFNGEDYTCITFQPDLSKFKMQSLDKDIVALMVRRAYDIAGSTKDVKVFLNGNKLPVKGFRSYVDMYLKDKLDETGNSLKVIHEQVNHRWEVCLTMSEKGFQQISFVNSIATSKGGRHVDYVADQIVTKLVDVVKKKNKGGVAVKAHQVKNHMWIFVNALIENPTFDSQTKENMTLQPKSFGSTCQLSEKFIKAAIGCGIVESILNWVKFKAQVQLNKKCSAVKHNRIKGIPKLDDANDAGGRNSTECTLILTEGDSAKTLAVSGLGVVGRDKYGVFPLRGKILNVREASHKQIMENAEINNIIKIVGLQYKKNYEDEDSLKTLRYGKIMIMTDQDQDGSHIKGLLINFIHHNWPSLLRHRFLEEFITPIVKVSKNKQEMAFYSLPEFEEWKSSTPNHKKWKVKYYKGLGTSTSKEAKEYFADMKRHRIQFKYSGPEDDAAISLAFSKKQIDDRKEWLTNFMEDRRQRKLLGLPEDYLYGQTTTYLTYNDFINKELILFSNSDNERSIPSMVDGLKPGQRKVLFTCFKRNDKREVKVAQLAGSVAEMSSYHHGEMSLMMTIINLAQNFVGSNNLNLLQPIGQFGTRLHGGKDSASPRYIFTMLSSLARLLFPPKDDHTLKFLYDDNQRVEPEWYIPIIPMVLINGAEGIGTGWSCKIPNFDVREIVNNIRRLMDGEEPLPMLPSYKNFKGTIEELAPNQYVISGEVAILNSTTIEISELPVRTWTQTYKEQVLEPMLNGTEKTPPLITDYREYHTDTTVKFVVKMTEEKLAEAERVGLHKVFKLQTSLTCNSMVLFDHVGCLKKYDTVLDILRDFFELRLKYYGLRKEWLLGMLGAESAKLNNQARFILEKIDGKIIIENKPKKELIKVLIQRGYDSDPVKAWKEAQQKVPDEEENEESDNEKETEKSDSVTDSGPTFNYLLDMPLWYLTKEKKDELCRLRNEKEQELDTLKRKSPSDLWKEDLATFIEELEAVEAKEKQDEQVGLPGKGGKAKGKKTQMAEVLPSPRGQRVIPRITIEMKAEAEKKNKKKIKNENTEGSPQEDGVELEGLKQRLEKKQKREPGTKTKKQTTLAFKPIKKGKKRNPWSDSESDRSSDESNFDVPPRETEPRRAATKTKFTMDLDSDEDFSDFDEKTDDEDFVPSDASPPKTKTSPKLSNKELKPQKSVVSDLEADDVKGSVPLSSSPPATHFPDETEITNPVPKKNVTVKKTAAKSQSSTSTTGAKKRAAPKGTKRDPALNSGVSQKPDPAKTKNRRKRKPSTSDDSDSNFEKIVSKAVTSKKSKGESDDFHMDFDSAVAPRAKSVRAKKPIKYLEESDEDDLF
TopoIIα-DNA covalent complex, sequence (P11388 whole entry, one chain of several): as the sequence (P11388 whole entry) above

For the molecule `CN1CCN(c2ccc3[nH]c(-c4ccc5[nH]c(-c6ccc(O)cc6)nc5c4)nc3c2)CC1` [Hoechst 33258], in data set [1], the “IC50 of EtBr displacement” value is “low μM” and the “displacement of EtBr (intercalator) from DNA” value is on record as “clearly demonstrates displacement of EtBr”.

Take `O=C(NC1(C(=O)O)Cc2ccccc2C1)c1ccc(Cl)c(-c2ccc(-c3ccccc3)cc2)c1` [Compound 320, 2-[(6″-Chloro-[1,1′;4′,1″]terphenyl-3″-carbonyl)-amino]-indan-2-carboxylic acid]: the “survival and side effects, acute toxicity” value in data set [2] (10 mg/Kg (low dose)) is “all the low dose mice survived with no visible side effects”. Also, the “survival, acute toxicity” value in data set [2] (100 mg/Kg (high dose)) is given as “Two mice in the high dose group survived”. Further, the “stabilization of the covalent complex in Topo I reactions” value in data set [3] is reported as “no apparent stabilization of the covalent complex”. Also, in data set [4], the “initial tumor growth delay” value is “no initial growth delay” and the “anti-tumor activity with respect to final tumor volume” value (“anti-tumor activity” below) is “some final growth inhibition”. Further, the “survival, MTD study” value in [5] was “All other animals survived to the end of the study”. The “survival, MTD study” value in data set [5] (30 mg/kg) is “Two animals in the highest dose group survived with one animal dying after 3 injections”. Moreover, the “stabilization of the TopoIIα-DNA covalent complex (linear form of minicircle)” value in data set [6] is “does not stabilize the covalent complex”. Further, in data set [7], the IC50 was around 30000 nM. The “inhibition of Topo IIα decatenation” value in [8] is on record as “complete inhibition”. The “shift in potency, resistant line MCF-7/ADR versus parent line MCF-7” value in data set [9] is given as “no shift in potency”.

In the case of `CN(C)CCN(C(=O)c1ccc(Cl)c(-c2ccc(-c3ccccc3)cc2)c1)c1cccnc1` [Compound 52, 6-Chloro-[1,1′;4′,1″]terphenyl-3-carboxylic acid (2-dimethylamino-ethyl)-pyridin-3-yl-amide], the IC50 in [10], in [11], in data set [12], in data set [13], in data set [14] and in data set [15] was 1000 to 25000 nM in each case. The IC50 in data set [16] was 1000 to 25000 nM; in data set [17] it was 1000 to 25000 nM; in data set [18], 1000 to 25000 nM; in data set [19] it was at most 1000 nM; in data set [20] it was 1000 to 25000 nM; in data set [21] it was 1000 to 25000 nM. In addition, in [22], the IC50 fell in the range of 1000 to 25000 nM.

For `COc1cccc2c1C(=O)c1c(O)c3c(c(O)c1C2=O)C[C@@](O)(C(=O)CO)C[C@@H]3O[C@H]1C[C@H](N)[C@H](O)[C@H](C)O1` [doxorubicin, reference compound], the “anti-tumor activity” value in data set [4] is recorded as “least efficacy”. Besides, the “mobility shift of pBR322 plasmid on gels” value in [23] is on record as “Mobility shifts were seen”. Further, in data set [8], the “inhibition of Topo IIα decatenation” value was “partial inhibition”. The “shift in potency, resistant line MCF-7/ADR versus parent line MCF-7” value in [9] was 100 fold.

For `COc1cc([C@@H]2c3cc4c(cc3[C@@H](O[C@@H]3O[C@@H]5CO[C@@H](C)O[C@H]5[C@H](O)[C@H]3O)[C@H]3COC(=O)[C@H]23)OCO4)cc(OC)c1O` [etoposide], in data set [4], the “initial tumor growth delay” value was “greatest initial growth delay” and the “anti-tumor activity” value is given as “greatest anti-tumor activity”. Moreover, the “stabilization of the TopoIIα-DNA covalent complex (linear form of minicircle)” value in data set [6] is reported as “the linear form is present”.

For the molecule `O=C(O)C1c2ccccc2CCN1C(=O)c1ccc(Cl)c(-c2ccc(-c3ccccc3)cc2)c1` (centres unmarked) [Compound 337, 2-(6″-Chloro-[1,1′;4′,1″]terphenyl-3″-carbonyl)-1,2,3,4-tetrahydro-isoquinoline-1-carboxylic acid], the “displacement of EtBr (intercalator) from DNA” value in [1] is given as “lack of intercalator displacement”.

For `O=C(NC1CCNCC1)c1ccc(Cl)c(-c2ccc(-c3ccccc3)cc2)c1` [Compound 43, 6-Chloro-[1,1′;4′,1″]terphenyl-3-carboxylic acid piperidin-4-ylamide], the IC50 in [10] was 1000 to 25000 nM; in data set [11], 1000 to 25000 nM; in data set [12] it was at most 1000 nM; in data set [13], 1000 to 25000 nM; in data set [14], 1000 to 25000 nM; in data set [15], 1000 to 25000 nM. Besides, the IC50 in [16] was 1000 to 25000 nM; in data set [17], 1000 to 25000 nM; in [18], 1000 to 25000 nM; in data set [19], at most 1000 nM; in data set [20] it was at most 1000 nM; in data set [21], at most 1000 nM. For the same molecule, in data set [22], the IC50 fell in the range of 1000 to 25000 nM.

(Values after patent US7683097B2, “Topoisomerase inhibitors” (Propharmacon Inc., priority 2004, dated 2010).)
